From patent US8999940B2 (Ipsen Pharma S.A.S., priority 2008, dated 2015)
Where no end group is shown, it is not given here. [ ]: non-standard residue; d: D form. Phe(4-CN) = N#Cc1ccc(C[C@H](N)C(=O)O)cc1; Ac5c = NC1(C(=O)O)CCCC1; Aib = CC(C)(N)C(=O)O

What was measured:
[1] = target: T1, human recombinant GIP receptor (Homo sapiens, UniProt P48546); assay: In vitro hGIP receptor binding assay
T1 construct: expressed in transfected cells; host or cells: CHO-K1 clonal cells (membrane preparation)
T1 sequence (P48546 22-466): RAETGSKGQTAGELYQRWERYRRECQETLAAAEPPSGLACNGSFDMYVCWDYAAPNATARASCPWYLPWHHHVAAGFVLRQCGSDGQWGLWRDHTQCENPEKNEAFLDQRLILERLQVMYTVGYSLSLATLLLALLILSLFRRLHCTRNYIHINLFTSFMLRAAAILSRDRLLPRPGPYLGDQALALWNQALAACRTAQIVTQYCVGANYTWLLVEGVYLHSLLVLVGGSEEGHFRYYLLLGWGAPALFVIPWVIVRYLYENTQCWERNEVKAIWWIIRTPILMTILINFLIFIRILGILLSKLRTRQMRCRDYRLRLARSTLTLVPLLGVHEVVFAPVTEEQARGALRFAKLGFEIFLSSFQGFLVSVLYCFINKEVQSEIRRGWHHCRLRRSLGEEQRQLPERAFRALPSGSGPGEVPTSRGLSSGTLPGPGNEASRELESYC
Method: A. In Vitro hGIP Receptor Binding Assay […] The incubations were terminated by rapid filtration through GF/C filters (pre-soaked in 0.5% polyethylenimine) using a Brandel filtration manifold. Each tube and filter were then washed three times with 5-ml aliquots of ice-cold buffer.

[2] = Human plasma half-life assay; type: in vitro ADME; settings: 37° C., LC-MS, read-out: Human Plasma T½ (converted)
[3] = Rat plasma half-life assay; type: in vitro ADME; settings: 37° C., LC-MS, read-out: Rat Plasma T½ (converted)

Compound	Ki [1]	half-life at 0.1 mg/ml [2]	half-life at 0.1 mg/ml [3]
CCCC[C@H](NC(=O)[C@H](C)NC(=O)[C@@H](NC(=O)C1(NC(=O)[C@H](Cc2ccc(O)cc2)NC(=O)[C@H](CC(=O)O)NC(=O)[C@H](CO)NC(=O)[C@@H](NC(=O)[C@H](Cc2ccccc2)NC(=O)[C@@H](NC(=O)CNC(=O)[C@H](CCC(=O)O)NC(=O)C(C)(C)NC(=O)[C@@H](N)CCc2ccc(O)cc2)[C@@H](C)O)[C@@H](C)CC)CCCC1)[C@@H](C)CC)C(=O)N[C@@H](CC(=O)O)C(=O)N[C@@H](CCCCN)C(=O)N[C@H](C(=O)N[C@@H](Cc1c[nH]cn1)C(=O)N[C@@H](CCC(N)=O)C(=O)N[C@@H](CCC(N)=O)C(=O)N[C@@H](CC(=O)O)C(=O)N[C@@H](Cc1ccccc1)C(=O)N[C@H](C(=O)N[C@@H](CC(N)=O)C(=O)N[C@@H](Cc1c[nH]c2ccccc12)C(=O)N[C@@H](CC(C)C)C(=O)N[C@@H](CC(C)C)C(=O)N[C@@H](C)C(=O)N[C@@H](CCC(N)=O)C(=O)N[C@@H](CCCCN)C(=O)NCC(=O)N[C@@H](CCCCN)C(=O)N[C@@H](CCCCN)C(=O)N[C@@H](CC(N)=O)C(=O)N[C@@H](CC(=O)O)C(=O)N[C@@H](Cc1c[nH]c2ccccc12)C(=O)N[C@@H](CCCCN)C(=O)N[C@@H](Cc1c[nH]cn1)C(=O)N[C@@H](CC(N)=O)C(=O)N[C@H](C(=O)N[C@H](C(=O)N[C@@H](CCC(N)=O)C(=O)O)[C@@H](C)O)[C@@H](C)CC)C(C)C)[C@@H](C)CC [Example 19, (hTyr^1, Aib^2, A5c^11, Nle^14)hGIP(1-42)-OH]	77.3 nM	> 72 h	15.2 h
CC[C@H](C)[C@H](NC(=O)[C@H](CCCCN)NC(=O)[C@H](CC(=O)O)NC(=O)[C@H](CCSC)NC(=O)[C@H](C)NC(=O)[C@@H](NC(=O)C1(NC(=O)[C@H](Cc2ccc(O)cc2)NC(=O)[C@H](CC(=O)O)NC(=O)[C@H](CO)NC(=O)[C@@H](NC(=O)[C@H](Cc2ccccc2)NC(=O)[C@@H](NC(=O)CNC(=O)[C@H](CCC(=O)O)NC(=O)C(C)(C)NC(=O)[C@@H](N)Cc2ccc(C#N)cc2)[C@@H](C)O)[C@@H](C)CC)CCCC1)[C@@H](C)CC)C(=O)N[C@@H](Cc1c[nH]cn1)C(=O)N[C@@H](CCC(N)=O)C(=O)N[C@@H](CCC(N)=O)C(=O)N[C@@H](CC(=O)O)C(=O)N[C@@H](Cc1ccccc1)C(=O)N[C@H](C(=O)N[C@@H](CC(N)=O)C(=O)N[C@@H](Cc1c[nH]c2ccccc12)C(=O)N[C@@H](CC(C)C)C(=O)N[C@@H](CC(C)C)C(=O)N[C@@H](C)C(=O)N[C@@H](CCC(N)=O)C(=O)N[C@@H](CCCCN)C(=O)NCC(=O)N[C@@H](CCCCN)C(=O)N[C@@H](CCCCN)C(=O)N[C@@H](CC(N)=O)C(=O)N[C@@H](CC(=O)O)C(=O)N[C@@H](Cc1c[nH]c2ccccc12)C(=O)N[C@@H](CCCCN)C(=O)N[C@@H](Cc1c[nH]cn1)C(=O)N[C@@H](CC(N)=O)C(=O)N[C@H](C(=O)NC1(C(=O)N[C@@H](CCC(N)=O)C(=O)O)CCCC1)[C@@H](C)CC)C(C)C [Example 38, (4CN-Phe^1, Aib^2, A5c^11, 41)hGIP(1-42)-OH]	14.4 nM	16.4 h	> 72 h
CC[C@H](C)[C@H](NC(=O)[C@H](CCCCN)NC(=O)[C@H](CC(=O)O)NC(=O)[C@H](CCSC)NC(=O)[C@H](C)NC(=O)[C@@H](NC(=O)C1(NC(=O)[C@H](Cc2ccc(O)cc2)NC(=O)[C@H](CC(=O)O)NC(=O)[C@H](CO)NC(=O)[C@@H](NC(=O)[C@H](Cc2ccccc2)NC(=O)[C@@H](NC(=O)CNC(=O)[C@H](CCC(=O)O)NC(=O)C(C)(C)NC(=O)[C@@H](N)Cc2ccc(F)cc2)[C@@H](C)O)[C@@H](C)CC)CCCC1)[C@@H](C)CC)C(=O)N[C@@H](Cc1c[nH]cn1)C(=O)N[C@@H](CCC(N)=O)C(=O)N[C@@H](CCC(N)=O)C(=O)N[C@@H](CC(=O)O)C(=O)N[C@@H](Cc1ccccc1)C(=O)N[C@H](C(=O)N[C@@H](CC(N)=O)C(=O)N[C@@H](Cc1c[nH]c2ccccc12)C(=O)N[C@@H](CC(C)C)C(=O)N[C@@H](CC(C)C)C(=O)N[C@@H](C)C(=O)N[C@@H](CCC(N)=O)C(=O)N[C@@H](CCCCN)C(=O)NCC(=O)N[C@@H](CCCCN)C(=O)N[C@@H](CCCCN)C(=O)N[C@@H](CC(N)=O)C(=O)N[C@@H](CC(=O)O)C(=O)N[C@@H](Cc1c[nH]c2ccccc12)C(=O)N[C@@H](CCCCN)C(=O)N[C@@H](Cc1c[nH]cn1)C(=O)N[C@@H](CC(N)=O)C(=O)N[C@H](C(=O)NC1(C(=O)N[C@@H](CCC(N)=O)C(=O)O)CCCC1)[C@@H](C)CC)C(C)C [Example 32, (4F-Phe^1, Aib^2, A5c^11, 41)hGIP(1-42)-OH]	5.82 nM	23.9 h	> 61 h
CC[C@H](C)[C@H](NC(=O)[C@H](CCCCN)NC(=O)[C@H](CC(=O)O)NC(=O)[C@H](CCSC)NC(=O)[C@H](C)NC(=O)[C@@H](NC(=O)C1(NC(=O)[C@H](Cc2ccc(O)cc2)NC(=O)[C@H](CC(=O)O)NC(=O)[C@H](CO)NC(=O)[C@@H](NC(=O)[C@H](Cc2ccccc2)NC(=O)[C@@H](NC(=O)CNC(=O)[C@H](CCC(=O)O)NC(=O)C(C)(C)NC(=O)[C@@H](N)Cc2c(C)cc(O)cc2C)[C@@H](C)O)[C@@H](C)CC)CCCC1)[C@@H](C)CC)C(=O)N[C@@H](Cc1c[nH]cn1)C(=O)N[C@@H](CCC(N)=O)C(=O)N[C@@H](CCC(N)=O)C(=O)N[C@@H](CC(=O)O)C(=O)N[C@@H](Cc1ccccc1)C(=O)N[C@H](C(=O)N[C@@H](CC(N)=O)C(=O)N[C@@H](Cc1c[nH]c2ccccc12)C(=O)N[C@@H](CC(C)C)C(=O)N[C@@H](CC(C)C)C(=O)N[C@@H](C)C(=O)N[C@@H](CCC(N)=O)C(=O)N[C@@H](CCCCN)C(=O)NCC(=O)N[C@@H](CCCCN)C(=O)N[C@@H](CCCCN)C(=O)N[C@@H](CC(N)=O)C(=O)N[C@@H](CC(=O)O)C(=O)N[C@@H](Cc1c[nH]c2ccccc12)C(=O)N[C@@H](CCCCN)C(=O)N[C@@H](Cc1c[nH]cn1)C(=O)N[C@@H](CC(N)=O)C(=O)N[C@H](C(=O)N[C@H](C(=O)N[C@@H](CCC(N)=O)C(=O)N[C@@H](Cc1c[nH]cn1)C(=O)O)[C@@H](C)O)[C@@H](C)CC)C(C)C [Example 53, (2,6Me-Tyr^1, Aib^2, A5c^11, His^43)hGIP(1-43)-OH]	35 nM	20 h	23.2 h
CCCC[C@H](NC(=O)[C@H](C)NC(=O)[C@@H](NC(=O)C1(NC(=O)[C@H](Cc2ccc(O)cc2)NC(=O)[C@H](CC(=O)O)NC(=O)[C@H](CO)NC(=O)[C@@H](NC(=O)[C@H](Cc2ccccc2)NC(=O)[C@@H](NC(=O)CNC(=O)[C@H](CCC(=O)O)NC(=O)C(C)(C)NC(=O)[C@@H](N)Cc2ccc(N)cc2)[C@@H](C)O)[C@@H](C)CC)CCCC1)[C@@H](C)CC)C(=O)N[C@@H](CC(=O)O)C(=O)N[C@@H](CCCCN)C(=O)N[C@H](C(=O)N[C@@H](Cc1c[nH]cn1)C(=O)N[C@@H](CCC(N)=O)C(=O)N[C@@H](CCC(N)=O)C(=O)N[C@@H](CC(=O)O)C(=O)N[C@@H](Cc1ccccc1)C(=O)N[C@H](C(=O)N[C@@H](CC(N)=O)C(=O)N[C@@H](Cc1c[nH]c2ccccc12)C(=O)N[C@@H](CC(C)C)C(=O)N[C@@H](CC(C)C)C(=O)N[C@@H](C)C(=O)N[C@@H](CCC(N)=O)C(=O)N[C@@H](CCCCN)C(=O)NCC(=O)N[C@@H](CCCCN)C(=O)N[C@@H](CCCCN)C(=O)N[C@@H](CC(N)=O)C(=O)N[C@@H](CC(=O)O)C(=O)N[C@@H](Cc1c[nH]c2ccccc12)C(=O)N[C@@H](CCCCN)C(=O)N[C@@H](Cc1c[nH]cn1)C(=O)N[C@@H](CC(N)=O)C(=O)N[C@H](C(=O)N[C@H](C(=O)N[C@@H](CCC(N)=O)C(=O)O)[C@@H](C)O)[C@@H](C)CC)C(C)C)[C@@H](C)CC [Example 18, (4NH2-Phe^1, Aib^2, A5c^11, Nle^14)hGIP(1-42)-OH]	3.4 nM	> 72 h	32.1 h
[Phe(4-CN)][Aib]EGTFISDY[Ac5c]IAMDKIHQQDFVNWLLAQKGKKNDWKHNITQH-OH [Example 79, (4CN-Phe^1, Aib^2, A5c^11, His^43)hGIP(1-43)-OH]	5.12 nM	26.3 h	21.7 h
CC[C@H](C)[C@H](NC(=O)[C@H](CCCCN)NC(=O)[C@H](CC(=O)O)NC(=O)[C@H](CCSC)NC(=O)[C@H](C)NC(=O)[C@@H](NC(=O)C1(NC(=O)[C@H](Cc2ccc(O)cc2)NC(=O)[C@H](CC(=O)O)NC(=O)[C@H](CO)NC(=O)[C@@H](NC(=O)[C@H](Cc2ccccc2)NC(=O)[C@@H](NC(=O)CNC(=O)[C@H](CCC(=O)O)NC(=O)C(C)(C)NC(=O)[C@@H](N)Cc2cccnc2)[C@@H](C)O)[C@@H](C)CC)CCCC1)[C@@H](C)CC)C(=O)N[C@@H](Cc1c[nH]cn1)C(=O)N[C@@H](CCC(N)=O)C(=O)N[C@@H](CCC(N)=O)C(=O)N[C@@H](CC(=O)O)C(=O)N[C@@H](Cc1ccccc1)C(=O)N[C@H](C(=O)N[C@@H](CC(N)=O)C(=O)N[C@@H](Cc1c[nH]c2ccccc12)C(=O)N[C@@H](CC(C)C)C(=O)N[C@@H](CC(C)C)C(=O)N[C@@H](C)C(=O)N[C@@H](CCC(N)=O)C(=O)N[C@@H](CCCCN)C(=O)NCC(=O)N[C@@H](CCCCN)C(=O)N[C@@H](CCCCN)C(=O)N[C@@H](CC(N)=O)C(=O)N[C@@H](CC(=O)O)C(=O)N[C@@H](Cc1c[nH]c2ccccc12)C(=O)N[C@@H](CCCCN)C(=O)N[C@@H](Cc1c[nH]cn1)C(=O)N[C@@H](CC(N)=O)C(=O)N[C@H](C(=O)NC1(C(=O)N[C@@H](CCC(N)=O)C(=O)O)CCCC1)[C@@H](C)CC)C(C)C [Example 34, (3-Pal^1, Aib^2, A5c^11, 41)hGIP(1-42)-OH]	9.75 nM	> 63 h	16.3 h
